One test has as its target T1, PI3K beta (Homo sapiens, UniProt P42338).
T1 construct: for the full-length p110-b subunit are generated and fused by overlapping PCR; p85(iSH2) fusion partner (see partner chain) (N); His tag (C); made in house; host or cells: baculovirus; Tn5 (Trichoplusia ni) or TiniPro insect cells
Put plainly: PI3K beta kinase assay (Kinase-Glo luminescence). Format: biochemical. In short, it runs like this:
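p110β full-length/p85 iSH2 construct (BV-949), 25 nM, with 1 μM ATP and 10 μg/mL phosphatidylinositol in 10 mM Tris pH 7.5, 3 mM MgCl2, 50 mM NaCl, 0.05% CHAPS, 1 mM DTT. 60 min at room temperature; ATP remaining read by Kinase-Glo luminescence. IC50 from 8-point four-parameter logistic fit.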
A general note: In Kinase-Glo more light means more ATP remaining.

For the next test, the target named is T2, mTOR (Homo sapiens, UniProt P42345).
T2 construct: purchased Invitrogen Corporation (Carlsbad/CA, USA) PV4753
Put plainly: Biochemical assay for m-TOR by TR-FRET. The conditions noted are these: 8 μM ATP, 400 nM GFP-4EBP1, 0.5 nM mTOR. The essentials:
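mTOR (0.5 nM) was incubated at rt with ATP (8 μM final) and GFP-4EBP1 (400 nM final) in 50 mM HEPES pH 7.5, 10 mM MnCl2, 50 mM NaCl, 1 mM EGTA, 1 mM DTT. EDTA stop with Tb3+-anti-p4EBP1 [pThr46] antibody (0.5 nM); TR-FRET read 15 min later.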
(In general: TR-FRET usually uses a lanthanide donor and a delayed reading to cut background.)

Test [1] concerns PKB Ser473 phosphorylation in Rat1-myr-HA-p110 delta cells. Put plainly: Reverse protein array assay, PKB Ser473 phosphorylation in Rat1-myr-p110 delta cells. It is filed as cell-based. The settings on record: read-out: p-PKB IC50. In short, it runs like this:
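Lysates were arrayed at four dilutions, and phospho-PKB Ser473 was quantified by relative fluorescence signal. They came from Rat1-myr-HA-p110 alpha, beta or delta cells exposed for 30 min at 37 °C to an 8-point compound series with 0.2% DMSO constant.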

The results in this text go back to US20140005163A1 (NOVARTIS AG, priority 2010, published 2014).

Molecules are shown by their SMILES. Some results are limits rather than exact numbers.

T1 sequence (P42338 with tags, fused parts or gaps limits assumed): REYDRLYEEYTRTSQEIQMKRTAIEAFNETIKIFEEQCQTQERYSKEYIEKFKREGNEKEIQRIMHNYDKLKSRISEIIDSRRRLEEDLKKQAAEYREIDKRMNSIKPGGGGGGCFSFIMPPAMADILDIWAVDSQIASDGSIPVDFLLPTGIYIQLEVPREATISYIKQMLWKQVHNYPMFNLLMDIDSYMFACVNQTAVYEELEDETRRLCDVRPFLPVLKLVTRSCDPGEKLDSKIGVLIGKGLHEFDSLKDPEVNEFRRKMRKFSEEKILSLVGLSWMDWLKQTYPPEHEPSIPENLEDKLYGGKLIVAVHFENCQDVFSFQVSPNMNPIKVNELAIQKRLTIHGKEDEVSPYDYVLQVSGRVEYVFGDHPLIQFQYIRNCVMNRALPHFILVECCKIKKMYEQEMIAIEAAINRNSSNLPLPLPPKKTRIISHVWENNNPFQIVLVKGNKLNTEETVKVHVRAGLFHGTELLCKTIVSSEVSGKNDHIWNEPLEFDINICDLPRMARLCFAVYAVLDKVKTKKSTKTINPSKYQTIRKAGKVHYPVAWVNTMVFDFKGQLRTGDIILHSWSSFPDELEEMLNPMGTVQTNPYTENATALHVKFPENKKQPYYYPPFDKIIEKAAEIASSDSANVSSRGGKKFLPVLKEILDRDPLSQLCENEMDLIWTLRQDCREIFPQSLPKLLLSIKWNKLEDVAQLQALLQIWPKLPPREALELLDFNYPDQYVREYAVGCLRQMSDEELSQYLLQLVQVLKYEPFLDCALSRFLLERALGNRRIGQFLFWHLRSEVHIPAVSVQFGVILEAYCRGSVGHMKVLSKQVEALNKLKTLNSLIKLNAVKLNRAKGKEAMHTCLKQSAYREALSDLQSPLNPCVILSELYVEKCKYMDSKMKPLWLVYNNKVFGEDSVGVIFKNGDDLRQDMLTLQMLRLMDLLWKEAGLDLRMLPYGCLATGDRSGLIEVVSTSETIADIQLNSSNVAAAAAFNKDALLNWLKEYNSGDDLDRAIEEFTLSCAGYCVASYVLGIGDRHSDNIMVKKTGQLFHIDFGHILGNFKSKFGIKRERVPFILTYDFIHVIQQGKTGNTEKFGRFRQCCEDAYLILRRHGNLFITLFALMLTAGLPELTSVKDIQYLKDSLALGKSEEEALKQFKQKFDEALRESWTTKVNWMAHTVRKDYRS
T2 sequence (P42345 1360-2549 limits assumed): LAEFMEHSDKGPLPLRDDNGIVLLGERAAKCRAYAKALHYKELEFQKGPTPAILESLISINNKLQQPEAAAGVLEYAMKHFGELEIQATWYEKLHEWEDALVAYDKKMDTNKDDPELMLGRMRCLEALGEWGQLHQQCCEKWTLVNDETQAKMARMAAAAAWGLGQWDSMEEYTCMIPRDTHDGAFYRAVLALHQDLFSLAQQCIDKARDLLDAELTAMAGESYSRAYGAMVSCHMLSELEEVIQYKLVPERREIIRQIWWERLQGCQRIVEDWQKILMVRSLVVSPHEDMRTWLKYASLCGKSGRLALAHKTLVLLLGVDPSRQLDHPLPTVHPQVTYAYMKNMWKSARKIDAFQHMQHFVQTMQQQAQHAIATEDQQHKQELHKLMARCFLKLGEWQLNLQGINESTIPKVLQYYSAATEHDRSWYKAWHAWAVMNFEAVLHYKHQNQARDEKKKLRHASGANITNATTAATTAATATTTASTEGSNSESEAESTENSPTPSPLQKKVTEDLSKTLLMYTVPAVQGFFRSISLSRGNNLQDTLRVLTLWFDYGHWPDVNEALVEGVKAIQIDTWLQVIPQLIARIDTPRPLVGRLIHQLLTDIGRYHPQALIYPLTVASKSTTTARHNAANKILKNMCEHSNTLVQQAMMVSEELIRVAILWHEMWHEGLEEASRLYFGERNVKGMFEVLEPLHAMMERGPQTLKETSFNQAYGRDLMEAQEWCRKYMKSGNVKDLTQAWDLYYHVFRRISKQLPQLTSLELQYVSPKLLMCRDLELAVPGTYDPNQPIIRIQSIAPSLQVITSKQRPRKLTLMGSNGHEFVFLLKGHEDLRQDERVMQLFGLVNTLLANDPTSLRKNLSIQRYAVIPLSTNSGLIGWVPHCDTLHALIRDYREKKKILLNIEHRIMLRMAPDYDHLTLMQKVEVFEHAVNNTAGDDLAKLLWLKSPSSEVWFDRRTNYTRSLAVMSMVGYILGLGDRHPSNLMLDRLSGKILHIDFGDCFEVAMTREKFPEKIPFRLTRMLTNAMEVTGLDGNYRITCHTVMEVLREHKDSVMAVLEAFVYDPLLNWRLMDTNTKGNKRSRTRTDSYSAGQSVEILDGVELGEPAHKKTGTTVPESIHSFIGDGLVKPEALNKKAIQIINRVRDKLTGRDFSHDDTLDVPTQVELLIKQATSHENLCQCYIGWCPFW

By IC50 is commonly meant the point on the concentration scale where inhibition reaches its midpoint. Take `Cc1nn(C)cc1-n1c(=O)n(C)c2cnc3ccc(-c4ccc(C(N)=O)cc4)cc3c21` [Example 41, 4-[1-(1,3-Dimethyl-1H-pyrazol-4-yl)-3-methyl-2-oxo-2,3-dihydro-1H-imidazo[4,5-c]quinolin-8-yl]-benzamide]: the half-maximal inhibitory concentration (IC50) stood at 112 nM on PI3K beta, 5 nM at mTOR and 92 nM in test [1].
As to `Cc1nn(C)cc1-n1c(=O)n(C)c2cnc3ccc(-c4ccc5c(c4)CC(=O)N5)cc3c21` [Example 49, 1-(1,3-Dimethyl-1H-pyrazol-4-yl)-3-methyl-8-(2-oxo-2,3-dihydro-1H-indol-5-yl)-1,3-dihydro-imidazo[4,5-c]quinolin-2-one], the results for the IC50 (at PI3K beta; on mTOR; in test [1]) were 506 nM, 46 nM and 442 nM, respectively.
`Cc1nn(C)cc1-n1c(=O)n(C)c2cnc3ccc(-c4cnc5c(c4)nnn5C)cc3c21` [Example 72, 1-(1,3-Dimethyl-1H-pyrazol-4-yl)-3-methyl-8-(3-methyl-3H-[1,2,3]triazolo[4,5-b]pyridin-6-yl)-1,3-dihydro-imidazo[4,5-c]quinolin-2-one]: the IC50 on PI3K beta was determined as 112 nM; on mTOR it was 179 nM; in test [1] it was 225 nM.
The matching figures for `CCN(C)C(=O)Cn1cc(-n2c(=O)n(C)c3cnc4ccc(-c5cncc(OC(C)C)c5)cc4c32)c(C)n1` [Example 58.5, N-Ethyl-2-{4-[8-(5-isopropoxy-pyridin-3-yl)-3-methyl-2-oxo-2,3-dihydro-imidazo[4,5-c]quinolin-1-yl]-3-methyl-pyrazol-1-yl}-N-methyl-acetamide]: 69 nM, 23 nM and 357 nM.
For the molecule `COc1ncc(-c2ccc3ncc4c(c3c2)n(-c2cn(C)nc2C)c(=O)n4C)cc1C(N)=O` [Example 125.2, 5-[1-(1,3-Dimethyl-1H-pyrazol-4-yl)-3-methyl-2-oxo-2,3-dihydro-1H-imidazo[4,5-c]quinolin-8-yl]-2-methoxy-nicotinamide], the IC50 at PI3K beta is 93 nM; on mTOR, 10 nM; in test [1], 61 nM.
As for `CCn1cc(-n2c(=O)n(C)c3cnc4ccc(-c5cnc(N)c(COC)c5)cc4c32)c(C)n1` [Example 168.2, 8-(6-Amino-5-methoxymethyl-pyridin-3-yl)-1-(1-ethyl-3-methyl-1H-pyrazol-4-yl)-3-methyl-1,3-dihydro-imidazo[4,5-c]quinolin-2-one], the IC50 worked out at 68 nM at PI3K beta, 41 nM on mTOR and 19 nM in test [1].
For the molecule `CCn1cc(-n2c(=O)n(C)c3cnc4ccc(-c5cnc(NC)nc5OC)cc4c32)c(C)n1` [Example 236, 1-(1-Ethyl-3-methyl-1H-pyrazol-4-yl)-8-(4-methoxy-2-methylamino-pyrimidin-5-yl)-3-methyl-1,3-dihydro-imidazo[4,5-c]quinolin-2-one], the IC50 was 90 nM on PI3K beta, less than 3 nM at mTOR and 13 nM in test [1].
For the molecule `Cc1ncc(-c2ccc3ncc4c(c3c2)n(-c2cn(C)nc2C)c(=O)n4C)cc1OC(CF)CF` [Example 189, 1-(1,3-Dimethyl-1H-pyrazol-4-yl)-8-[5-(2-fluoro-1-fluoromethyl-ethoxy)-6-methyl-pyridin-3-yl]-3-methyl-1,3-dihydro-imidazo[4,5-c]quinolin-2-one], the IC50 at PI3K beta turned out to be 5 nM; at mTOR, 17 nM; in test [1], 5 nM.
Consider `Cc1nn(C)cc1-n1c(=O)n(C)c2cnc3ccc(-c4cncc(C5(O)CCCC5)c4)cc3c21` [Example 218, 1-(1,3-Dimethyl-1H-pyrazol-4-yl)-8-[5-(1-hydroxy-cyclopentyl)-pyridin-3-yl]-3-methyl-1,3-dihydro-imidazo[4,5-c]quinolin-2-one], for which the figures for the IC50 (on PI3K beta; on mTOR; in test [1]) were 19 nM, 41 nM and 53 nM, respectively.
As to `COc1ccc(-c2ccc3ncc4c(c3n2)n(-c2cn(C)nc2C)c(=O)n4C)cc1OC` [Example 250, 8-(3,4-Dimethoxy-phenyl)-1-(1,3-dimethyl-1H-pyrazol-4-yl)-3-methyl-1,3-dihydro-1,3,5,9-tetraaza-cyclopenta[a]naphthalen-2-one], the IC50 at PI3K beta was determined as 68 nM; at mTOR it was 135 nM; in test [1], 118 nM.
Turning to `CNc1ncc(-c2ccc3ncc4c(c3c2)n(-c2cc(C)nn2C)c(=O)n4C)cc1Cl` [Example 146.5, 8-(5-Chloro-6-methylamino-pyridin-3-yl)-1-(2,5-dimethyl-2H-pyrazol-3-yl)-3-methyl-1,3-dihydro-imidazo[4,5-c]quinolin-2-one], the figures for the IC50 (on PI3K beta; on mTOR; in test [1]) were 167 nM, 48 nM and 59 nM, respectively.
The corresponding values for `CNc1ncc(-c2ccc3ncc4c(c3c2)n(-c2c(C)nn(C)c2C)c(=O)n4C)cc1F` [Example 141.1, 8-(5-Fluoro-6-methylamino-pyridin-3-yl)-3-methyl-1-(1,3,5-trimethyl-1H-pyrazol-4-yl)-1,3-dihydro-imidazo[4,5-c]quinolin-2-one] are 469 nM, 447 nM and 403 nM.
The matching figures for `CCn1cc(-n2c(=O)n(C)c3cnc4ccc(-c5cnc(COC)c(OC)c5)cc4c32)c(C)n1` [Example 195.3, 1-(1-Ethyl-3-methyl-1H-pyrazol-4-yl)-8-(5-methoxy-6-methoxymethyl-pyridin-3-yl)-3-methyl-1,3-dihydro-imidazo[4,5-c]quinolin-2-one]: 161 nM, 76 nM and 255 nM.
With `Cc1nn(C)cc1-n1c(=O)n(C)c2cnc3ccc(-c4cnc5c(c4)OCCN5C)cc3c21` [Example 209, 1-(1,3-Dimethyl-1H-pyrazol-4-yl)-3-methyl-8-(4-methyl-3,4-dihydro-2H-pyrido[3,2-b][1,4]oxazin-7-yl)-1,3-dihydro-imidazo[4,5-c]quinolin-2-one], the figures for the IC50 (on PI3K beta; on mTOR; in test [1]) were 273 nM, 21 nM and 66 nM, respectively.
